Experimental data reported in a melting point compilation (Tetko et al.; mined from patent text by program, amines drawn as free bases though some values may be those of a salt).

**Q.** For `N/C(=C1/Sc2ccccc2C1=O)c1ccccc1[N+](=O)[O-]`, which melting point is on record?
**A.** 185 to 186 °C

**Q.** For `CON=C(c1ccon1)c1ccccc1COc1cc(C)ccc1C`, which melting point is on record?
**A.** 104 to 108 °C

**Q.** Which melting point does the source give for `NS(=O)(=O)Oc1cccc(Cl)c1Cl` here?
**A.** 116 to 117 °C

**Q.** For `C[C@H](CSC(=O)C(C)(C)C)C(=O)N(CC(=O)OC(C)(C)C)C1CCCC1`, which melting point is on record?
**A.** 58 °C

**Q.** With `COc1ccc(CC(C#N)C(=O)O)cc1` (stereo not given) as the compound, how does the melting point read?
**A.** 94 to 95 °C

**Q.** For `COc1ccc(Nc2nc(-c3ccncc3)cs2)nc1`, which melting point is on record?
**A.** 213 to 214 °C

**Q.** Which melting point does the source give for `CCOC(=O)c1ccc(-c2ccc(OCCCCCCCCCCCCBr)cc2)cc1` here?
**A.** 88.6 to 90.5 °C

**Q.** For `COc1ccc(F)cc1C(=O)NC1Cc2cc(S(=O)(=O)NC(=S)NC(C)C)c(OC)cc2OC1(C)C` (stereo not given), which melting point is on record?
**A.** 156 to 157 °C

**Q.** Which melting point does the source give for `N#CCCOCc1cc(Cl)nc(Cl)c1` here?
**A.** 65.5 °C

**Q.** For `COC(=O)C1CCc2cc(C(=O)c3ccccc3Cl)c(O)cc21` (stereo not given), which melting point is on record?
**A.** 188 to 190 °C

**Q.** Which melting point does the source give for `O=S(=O)(c1ccc(Cl)cc1)C(c1cc(F)ccc1F)c1ccncc1Cl` (stereo not given) here?
**A.** 160 to 161 °C

**Q.** For `CCC(C(=O)O)c1ccc2c(c1)Cc1ccccc1S2` (stereo not given), which melting point is on record?
**A.** 74 to 77 °C

**Q.** Which melting point does the source give for `Cc1cc(=O)[nH]nc1-c1ccc(-c2n[nH]c(=O)cc2C)cc1` here?
**A.** > 250 °C

**Q.** With `Cc1cccc(CC(=O)c2ccnc(-c3ccc(C(=O)N4CCOCC4)cc3)c2)n1` as the compound, how does the melting point read?
**A.** 106 °C

**Q.** For `N#Cc1sc2cc(NC(=O)OCc3ccccc3)ccc2c1Cl`, which melting point is on record?
**A.** 155 to 166 °C

**Q.** Which melting point does the source give for `O=C(O)COc1ccc2c(=O)c3cccc(Cl)c3oc2c1Cl` here?
**A.** 283 to 286 °C

**Q.** With `CCc1nn(-c2ccc3cc(-c4ccc(-n5cnnc5)cc4)c(=O)oc3c2)nc1C` as the compound, how does the melting point read?
**A.** 321 to 323 °C

**Q.** With `O=[N+]([O-])c1cc(Cl)c(Oc2cc(Cl)c(Cl)cc2Cl)cc1Oc1ccccc1` as the compound, how does the melting point read?
**A.** 84 °C

**Q.** For `COc1ccc(CC2C(=O)N(Cc3ccccc3)c3ccccc3N(C(=O)CN3C(=O)c4ccccc4C3=O)C2C)cc1` (stereo not given), which melting point is on record?
**A.** 247 to 248 °C

**Q.** For `CCCOc1ncc(NC(=O)CC(=O)O)cc1-c1nc2c(CCC)nn(C)c2c(=O)[nH]1`, which melting point is on record?
**A.** 261 to 262 °C

**Q.** Which melting point does the source give for `Oc1cccnc1Oc1cccc(Cl)c1` here?
**A.** 109 to 110 °C

**Q.** With `O=C(O)C1(c2ccco2)CC1` as the compound, how does the melting point read?
**A.** 113 to 114 °C

**Q.** For `Clc1ccc(C2=NCCc3c2ccc2ccccc32)cc1`, which melting point is on record?
**A.** 138 to 140 °C

**Q.** Which melting point does the source give for `NC(=O)c1[nH]c2cccnc2c1Sc1ccc(Cl)cc1Cl` here?
**A.** 266 °C

**Q.** Which melting point does the source give for `Cn1cccc1C1=C(Cl)C(=O)c2cccnc2C1=O` here?
**A.** 168 to 169 °C

**Q.** With `COC(=O)c1nc(CN2CCOCC2)n(-c2ccc(Cl)cc2C(=O)c2ccccc2Cl)n1` as the compound, how does the melting point read?
**A.** 141 to 143 °C

**Q.** Which melting point does the source give for `NS(=O)(=O)c1cc(C(=O)O)cc(SCc2ccccc2)c1-c1ccccc1` here?
**A.** 114 to 120 °C

**Q.** Which melting point does the source give for `COc1ccc(C(=O)C(=O)c2cccnc2)cc1` here?
**A.** 70 to 72 °C

**Q.** For `NS(=O)(=O)c1cccc(-c2cccc(-c3nc(-c4ccc(F)c(F)c4)cc(C(F)(F)F)n3)c2)c1`, which melting point is on record?
**A.** 211 °C

**Q.** For `COc1ccc2c(c1)CC(C(=O)O)CC2` (stereo not given), which melting point is on record?
**A.** 119 to 122 °C

**Q.** With `COCn1ncc2cc(-c3nnc(S)o3)ccc21` as the compound, how does the melting point read?
**A.** > 300 °C

**Q.** Which melting point does the source give for `COC(=O)c1cccc(OC)c1OS(=O)(=O)NC(=O)Nc1nc(C)cc(Cl)n1` here?
**A.** 140 to 143 °C

**Q.** For `O=C(Nc1ccc(F)cc1)NC1C(=O)N(CC(=O)N2CCCC2)c2ccccc2N(C2CCCCC2)C1=O` (stereo not given), which melting point is on record?
**A.** 181 to 183 °C

**Q.** With `CCOC(=O)c1[nH]c2cc(Cl)cc(Cl)c2c1NCC(=O)c1cccc(F)c1` as the compound, how does the melting point read?
**A.** 234 to 235 °C

**Q.** Which melting point does the source give for `N#Cc1c(Cl)sc2[nH]c(=O)c(=O)[nH]c12` here?
**A.** > 250 °C

**Q.** For `CN(C)c1ccccc1CSc1nc2ccccc2[nH]1`, which melting point is on record?
**A.** 167 to 170 °C

**Q.** For `CC1(C)CNC(=O)C(=O)N1c1cc(F)cc2ccoc12`, which melting point is on record?
**A.** 162 to 165 °C

**Q.** For `COC(=O)c1ccccc1S(=O)(=O)NC(=O)n1nc(Cl)n(N(C)C)c1=O`, which melting point is on record?
**A.** 146 °C

**Q.** For `N#CNC(=NCCN1CCC(C2(c3ccc(F)cc3)OCCO2)CC1)N1CCCCC1`, which melting point is on record?
**A.** 155 to 157 °C

**Q.** Which melting point does the source give for `Cc1cc(NCc2ccc3oc(-c4ccccc4C#N)c(Br)c3c2)n2nccc2n1` here?
**A.** 210 to 215 °C

**Q.** With `CC(C)(C)OC(=O)C[C@@H]1C[C@@H](COc2ccc(-c3ccc(C#N)c(F)c3)cc2)NC1=O` as the compound, how does the melting point read?
**A.** 142 to 144 °C

**Q.** With `CC1C=C(c2cccc(C(F)(F)F)c2)n2ncc(C#N)c2N1C(=O)CCl` (stereo not given) as the compound, how does the melting point read?
**A.** 160 to 163 °C

**Q.** With `CCCc1cc(F)c2occ(C)c2c1O` as the compound, how does the melting point read?
**A.** 53 to 54 °C

**Q.** With `CC(C)n1nc(-c2c(-c3ccccc3)nc(N)nc2-n2ccnc2)ccc1=O` as the compound, how does the melting point read?
**A.** 255 to 258 °C

**Q.** Which melting point does the source give for `O=C(CCc1cccc(C(F)(F)F)c1)NNC(=O)c1ccc2[nH]ncc2c1` here?
**A.** 227 to 228 °C

**Q.** For `CCOC(=O)C1=C(C)C2=C(CC1)SCCC2=O`, which melting point is on record?
**A.** 99 to 100 °C

**Q.** For `O=C(O)CCCCCCc1nc2c(F)c(F)cc(F)c2s1`, which melting point is on record?
**A.** 116 to 118 °C

**Q.** With `CN1C(=O)CC[C@]2(C)c3ccc(-c4ccc(NC(=O)C(C)(C)C)nc4)cc3CC[C@@H]12` as the compound, how does the melting point read?
**A.** 248 to 250 °C

**Q.** With `O=C(O)CCCCCCCn1ncc(-c2ccccc2)c1-c1ccccc1` as the compound, how does the melting point read?
**A.** 94 to 95 °C

**Q.** For `OCC(O)CSSc1nc2ccccc2s1` (stereo not given), which melting point is on record?
**A.** 115 to 120 °C
